The source of these data is patent publication US6506766B1 (Abbott Laboratories, priority 1998, dated 2003).

Read-outs that look alike come from different tables or passages of the source.

Assay [1] concerns the target T1, human progesterone receptor-A [PRA] isoform (Homo sapiens, UniProt P06401).
T1 construct: host or cells: insect SF21 cells (baculovirus)
T1 sequence (P06401 1-769 isoform P06401-2): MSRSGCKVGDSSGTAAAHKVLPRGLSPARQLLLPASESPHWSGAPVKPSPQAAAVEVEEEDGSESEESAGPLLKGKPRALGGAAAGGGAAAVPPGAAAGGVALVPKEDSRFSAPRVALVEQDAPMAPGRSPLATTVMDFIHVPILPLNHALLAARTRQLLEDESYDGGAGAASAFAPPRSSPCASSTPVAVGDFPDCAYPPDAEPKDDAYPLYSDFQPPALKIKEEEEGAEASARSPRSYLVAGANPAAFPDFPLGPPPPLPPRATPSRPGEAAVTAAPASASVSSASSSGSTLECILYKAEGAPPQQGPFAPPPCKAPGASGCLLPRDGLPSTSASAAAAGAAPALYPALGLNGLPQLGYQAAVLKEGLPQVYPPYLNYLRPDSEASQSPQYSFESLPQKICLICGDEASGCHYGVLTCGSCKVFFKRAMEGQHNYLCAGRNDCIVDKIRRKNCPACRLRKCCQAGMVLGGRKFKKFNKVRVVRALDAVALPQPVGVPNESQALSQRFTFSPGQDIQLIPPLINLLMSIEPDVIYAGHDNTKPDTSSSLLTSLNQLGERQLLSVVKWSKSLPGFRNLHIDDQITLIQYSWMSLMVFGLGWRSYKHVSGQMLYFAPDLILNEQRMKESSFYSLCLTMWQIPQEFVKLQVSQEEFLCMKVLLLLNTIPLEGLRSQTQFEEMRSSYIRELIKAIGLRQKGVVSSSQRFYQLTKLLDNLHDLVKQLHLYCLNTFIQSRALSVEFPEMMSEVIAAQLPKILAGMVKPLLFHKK
Put plainly: Radioligand binding with human progesterone receptor cytosol ([3H]-progesterone competition). The following applies: read-out: Ki (nM) PR.

Assay [2] has as its target T2, human glucocorticoid receptor-α [GRX] isoform (Homo sapiens, UniProt P04150).
T2 construct: host or cells: insect SF21 cells (baculovirus)
T2 sequence (P04150 1-777): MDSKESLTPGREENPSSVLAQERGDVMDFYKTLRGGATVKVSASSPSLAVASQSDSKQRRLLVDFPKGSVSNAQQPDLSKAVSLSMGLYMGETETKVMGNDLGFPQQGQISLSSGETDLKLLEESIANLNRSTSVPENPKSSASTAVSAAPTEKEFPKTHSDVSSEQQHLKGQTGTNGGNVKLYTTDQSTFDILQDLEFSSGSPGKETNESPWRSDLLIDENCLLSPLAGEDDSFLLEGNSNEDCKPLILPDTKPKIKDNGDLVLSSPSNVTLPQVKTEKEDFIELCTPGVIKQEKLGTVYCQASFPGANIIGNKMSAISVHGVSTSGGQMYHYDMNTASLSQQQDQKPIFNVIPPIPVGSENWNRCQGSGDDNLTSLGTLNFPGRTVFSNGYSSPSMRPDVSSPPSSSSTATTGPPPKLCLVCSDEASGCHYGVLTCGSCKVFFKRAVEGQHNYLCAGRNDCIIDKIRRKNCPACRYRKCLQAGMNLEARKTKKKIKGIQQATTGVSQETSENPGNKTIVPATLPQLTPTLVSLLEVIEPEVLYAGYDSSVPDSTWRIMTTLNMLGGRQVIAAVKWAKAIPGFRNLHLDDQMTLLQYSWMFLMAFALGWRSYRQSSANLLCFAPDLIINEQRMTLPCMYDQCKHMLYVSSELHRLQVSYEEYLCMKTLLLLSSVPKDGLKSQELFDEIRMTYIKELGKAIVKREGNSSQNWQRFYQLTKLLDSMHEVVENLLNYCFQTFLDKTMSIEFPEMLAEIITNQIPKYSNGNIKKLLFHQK
As to the kind of experiment: Radioligand binding with human glucocorticoid receptor cytosol ([3H]-dexamethasone competition). The following applies: read-out: Ki (nM) GR.

[3] abbreviates: PRA cytosol expressed in insect SF21 cells, [3H]Prog ~0.8 nM, 4° C. overnight, Ki by Cheng-Prusoff, KL ~4.5 nM.
Setting [4] is: GRX cytosol expressed in insect SF21 cells, [3H]-Dex ~0.9 nM, 4° C. overnight, Ki by Cheng-Prusoff, KL ~[…].

Take `C=C=C(C)C1Oc2cccc(OC)c2-c2ccc3c(c21)C(C)=CC(C)(C)N3` (stereo not shown) [Example 210, 2,5-Dihydro-10-methoxy-5-(-methylpropa-1,2-dienyl)-2,2,4-trimethyl-1H-[1]benzopyrano[3,4-f]quinoline]: the values for the Ki in assay [1] and in assay [2] were 710 nM and 21 nM, respectively.

Regarding `COc1cccc2c1-c1ccc3c(c1C(c1cc(F)c(F)c(F)c1)O2)C(C)=CC(C)(C)N3` (stereo not shown) [Example 211], the Ki in assay [1] (setting [3]) was at least 10000 nM; in assay [2] (setting [4]) it was 5.3 nM.

With `COc1cccc2c1-c1ccc3c(c1C(c1ccccn1)O2)C(C)=CC(C)(C)N3` (stereo not shown) [Example 213, 2,5-Dihydro-10-methoxy-5-(2-pyridyl)-2,2,4-trimethyl-1H-[1]benzopyrano[3,4-f]quinoline], the Ki in assay [1] (setting [3]) was at least 10000 nM; in assay [2] (setting [4]), 67 nM.

As to `COc1cccc2c1-c1ccc3c(c1C(c1cccnc1)O2)C(C)=CC(C)(C)N3` (stereo not shown) [Example 214, 2,5-Dihydro-10-methoxy-5-(3-pyridyl)-2,2,4-trimethyl-1H-[1]benzopyrano[3,4-f]quinoline], the Ki in assay [1] (setting [3]) is at least 10000 nM; in assay [2] (setting [4]), 5.7 nM.

Regarding `COc1cccc2c1-c1ccc3c(c1C(c1ccncc1)O2)C(C)=CC(C)(C)N3` (stereo not shown) [Example 215, 2,5-Dihydro-10-methoxy-5-(4-pyridyl)-2,2,4-trimethyl-1H-[1]benzopyrano[3,4-f]quinoline], the Ki was at least 10000 nM in assay [1] (setting [3]) and 20 nM in assay [2] (setting [4]).

Take `C=CCC1Oc2ccc(O)c(Cl)c2-c2ccc3c(c21)C(C)=CC(C)(C)N3` (stereo not shown) [Example 216, 10-Chloro-9-hydroxy-5-(3-propenyl)-2,2,4-trimethyl-1H-2,5-dihydro-[1]benzopyrano[3,4-f]quinoline]: the Ki stood at 7.6 nM in assay [1] (setting [3]) and 0.58 nM in assay [2].

Take `CC1=CC(C)(C)Nc2ccc3c(c21)C(c1ccccc1)Oc1ccc(O)c(Cl)c1-3` (stereo not shown) [Example 217, 10-Chloro-9-hydroxy-5-phenyl-2,2,4-trimethyl-1H-2,5-dihydro-[1]benzopyrano[3,4-f]quinoline]: the Ki in assay [1] (setting [3]) turned out to be 65.1 nM; in assay [2] (setting [4]), 1 nM.

`CC1=CC(C)(C)Nc2ccc3c(c21)C(c1cccc(C(F)(F)F)c1)Oc1ccc(O)c(Cl)c1-3` (stereo not shown) [Example 218, 10-Chloro-9-hydroxy-5-(3-trifluoromethylphenyl)-2,2,4-trimethyl-1H-2,5-dihydro-[1]benzopyrano[3,4-f]quinoline]: the figures for the Ki in assay [1] (setting [3]) and in assay [2] (setting [4]) were 227 nM and 1.6 nM, respectively.

Take `CC1=CC(C)(C)Nc2ccc3c(c21)C(c1cc(C)cc(C)c1)Oc1ccc(O)c(Cl)c1-3` (stereo not shown) [Example 219, 10-Chloro-9-hydroxy-5-(3,5-dimethylphenyl)-2,2,4-trimethyl-1H-2,5-dihydro-[1]benzopyrano[3,4-f]quinoline]: the inhibitory constant (Ki) in assay [1] (setting [3]) is 178 nM; in assay [2] (setting [4]), 2.4 nM.

As to `CC1=CC(C)(C)Nc2ccc3c(c21)[C@H]([C@H]1C=CCC1)Oc1ccc(O)c(Cl)c1-3` [Example 222, (−)2,5(S)-Dihydro-9-hydroxy-10-chloro-2,2,4-trimethyl-5-(3R-cyclopentenyl)-1H-[1]benzopyrano[3,4-f]quinoline], the Ki in assay [1] (setting [3]) was 9.9 nM; in assay [2] (setting [4]), 0.47 nM.

Take `CC1=CC(C)(C)Nc2ccc3c(c21)C(c1cc(Cl)cc(Cl)c1)Oc1ccc(O)c(Cl)c1-3` (stereo not shown) [Example 223, 10-Chloro-9-hydroxy-5-(3,5-dichlorophenyl)-2,2,4-trimethyl-1H-2,5-dihydro-[1]benzopyrano[3,4-f]quinoline]: the Ki in assay [1] (setting [3]) is 297 nM; in assay [2] (setting [4]) it was 2.6 nM.

Consider `CC1=CC(C)(C)Nc2ccc3c(c21)[C@@H]([C@@H]1C=CCC1)Oc1ccc(O)c(Cl)c1-3` [Example 224], for which the Ki in assay [1] (setting [3]) is 786 nM; in assay [2] (setting [4]), 57 nM.

Take `CC1=CC(C)(C)Nc2ccc3c(c21)[C@@H]([C@H]1C=CCC1)Oc1ccc(O)c(Cl)c1-3` [Example 225]: the Ki is 5010 nM in assay [1] (setting [3]) and 155 nM in assay [2] (setting [4]).

As for `CC1=CC(C)(C)Nc2ccc3c(c21)C(c1ccc(F)c(F)c1)Oc1ccc(O)c(Cl)c1-3` (stereo not shown) [Example 226, 10-Chloro-9-hydroxy-5-(3,4-difluorophenyl)-2,2,4-trimethyl-1H-2,5-dihydro-[1]benzopyrano[3,4-f]quinoline], the Ki in assay [1] (setting [3]) stood at 220 nM; in assay [2] (setting [4]), 2.6 nM.

As to `C=CCC1Oc2ccc(Cl)c(C=C)c2-c2ccc3c(c21)C(C)=CC(C)(C)N3` (stereo not shown) [Example 228, 5-(3-Propenyl)-9-chloro-10-ethenyl-2,2,4-trimethyl-2,5-dihydro-1H-[1]benzopyrano[3,4-f]quinoline], the Ki in assay [1] (setting [3]) turned out to be 29.5 nM; in assay [2] (setting [4]), 5.4 nM.

With `COc1c(Cl)ccc2c1-c1ccc3c(c1C(c1ccccc1)O2)C(C)=CC(C)(C)N3` (stereo not shown) [Example 229, 9-Chloro-10-methoxy-5-phenyl-2,2,4-trimethyl-2,5-dihydro-1H[1]benzopyrano[3,4-f]quinoline], the Ki amounted to 1340 nM in assay [1] (setting [3]) and 34.7 nM in assay [2] (setting [4]).

For the compound `C=CCC1Oc2ccc(Cl)c(OC(F)F)c2-c2ccc3c(c21)C(C)=CC(C)(C)N3` (stereo not shown) [Example 230, 5-(3-Propenyl)-9-chloro-10-difluoromethoxy-2,2,4-trimethyl-2,5-dihydro-1H-[1]benzopyrano[3,4-f]quinoline], the Ki in assay [1] (setting [3]) turned out to be 50.3 nM; in assay [2] (setting [4]), 2.4 nM.

For `CC1=CC(C)(C)Nc2ccc3c(c21)C(c1ccccc1)Oc1ccc(Cl)c(OC(F)F)c1-3` (stereo not shown) [Example 231, 9-Chloro-10-difluoromethoxy-5-phenyl-2,2,4-trimethyl-2,5-dihydro-1H-[1]benzopyrano[3 4-f]quinoline], the Ki is 1870 nM in assay [1] (setting [3]) and 30.2 nM in assay [2] (setting [4]).

As to `COc1cc(F)cc2c1-c1ccc3c(c1C(c1ccccc1)O2)C(C)=CC(C)(C)N3` (stereo not shown) [Example 232, 8-Fluoro-10-methoxy-5-phenyl-2,2,4-trimethyl-2,5-dihydro-1H-[1]benzopyrano[3,4-f]quinoline], the Ki in assay [1] (setting [3]) was determined as 230 nM; in assay [2] (setting [4]), 1.6 nM.

With `C=CCC1Oc2cc(F)cc(OC)c2-c2ccc3c(c21)C(C)=CC(C)(C)N3` (stereo not shown) [Example 233, 5-(3-Propenyl)-8-fluoro-10-methoxy-2,2,4-trimethyl-2,5-dihydro-1H-[1]benzopyrano[3,4-f]quinoline], the Ki is 350 nM in assay [1] (setting [3]) and 2.5 nM in assay [2] (setting [4]).

In the case of `C=CCC1Oc2ccc(O)c(OC)c2-c2ccc3c(c21)C(C)=CC(C)(C)N3` (stereo not shown) [Example 235, 10-Methoxy-9-hydroxy-5-(3-propenyl)-2,2,4-trimethyl-1H-2,5-dihydro-[1]benzopyrano[3,4-f]quinoline], the results for the Ki in assay [1] (setting [3]) and in assay [2] (setting [4]) were 155 nM and 0.94 nM, respectively.

`COc1c(O)ccc2c1-c1ccc3c(c1[C@@H]([C@@H]1C=C(C)CCC1)O2)C(C)=CC(C)(C)N3` [Example 240, (+)(5R,3′S)-9-Hydroxy-5-[1-methyl-3-cyclohexenyl]-10-methoxy-2,2,4-trimethyl-2,5-dihydro-1H-[1]benzopyrano[3,4-f]quinoline]: the Ki was 2170 nM in assay [1] (setting [3]) and 52.2 nM in assay [2] (setting [4]).

Turning to `COc1c(O)ccc2c1-c1ccc3c(c1[C@H]([C@@H]1C=CCCCC1)O2)C(C)=CC(C)(C)N3` [Example 246, (−)(5S,3′S)2,5-Dihydro-9-hydroxy-10-methoxy-2,2,4-trimethyl-5-(3-cycloheptenyl)-1H-[1]benzopyrano[3,4-f]quinoline], the Ki was found to be 113 nM in assay [1] (setting [3]) and 0.87 nM in assay [2] (setting [4]).

As usually defined, the Ki is a dissociation constant, usually derived from enzyme kinetics or from competition with a known ligand.
